Each molecule was assayed against human URAT1 (Homo sapiens (Human), UniProt Q96S37) (assay: Inhibition of 14C-uric acid absorption in URAT1 cell model (HEK-293T cells transfected with human URAT1)). Settings: HEK-293T cells transfected with human URAT1, 14C-uric acid uptake, 5 min, 37 degrees; read-out: URAT1 IC50 Activity level.
Assay type: cell-based
Experimental: After 5 min, the buffer was removed from cell wells, added with 100 microliter of ice-cold and no chloride ions-containing HBSS buffer to gently rinse cells within wells so as to stop them from absorbing ^14C-uric acid, the rinsing was repeated 3 times in the same manner. 150 microliter of cell lysate (100 mM of NaOH) was added in each well. Cell plate was placed on a vibrating plate and vibrated for 10 min at a speed of 600 rpm such that the cells were completely lysed. The cell plate was put in a centrifuge and spun for 5 min at a speed of 1000 rpm, then 45 microliter of supernatant was sucked out from each well and transferred to 96-well plate (Isoplate-96 Microplate from PerkinElmer). In the new 96-well plate, 150 microliter of Ultima Gold XR scintillation solution was added in each well. The 96-well plate was vibrated for 10 min at a speed of 600 rpm on a vibrating plate. Finally, the 96-well plate was put in a MicroBeta Trilux Counter from PerkinElmer and was read, then IC50 values were calculated, and the results are shown in Table 1 below. Wherein

Chain of human URAT1 (Q96S37 whole entry): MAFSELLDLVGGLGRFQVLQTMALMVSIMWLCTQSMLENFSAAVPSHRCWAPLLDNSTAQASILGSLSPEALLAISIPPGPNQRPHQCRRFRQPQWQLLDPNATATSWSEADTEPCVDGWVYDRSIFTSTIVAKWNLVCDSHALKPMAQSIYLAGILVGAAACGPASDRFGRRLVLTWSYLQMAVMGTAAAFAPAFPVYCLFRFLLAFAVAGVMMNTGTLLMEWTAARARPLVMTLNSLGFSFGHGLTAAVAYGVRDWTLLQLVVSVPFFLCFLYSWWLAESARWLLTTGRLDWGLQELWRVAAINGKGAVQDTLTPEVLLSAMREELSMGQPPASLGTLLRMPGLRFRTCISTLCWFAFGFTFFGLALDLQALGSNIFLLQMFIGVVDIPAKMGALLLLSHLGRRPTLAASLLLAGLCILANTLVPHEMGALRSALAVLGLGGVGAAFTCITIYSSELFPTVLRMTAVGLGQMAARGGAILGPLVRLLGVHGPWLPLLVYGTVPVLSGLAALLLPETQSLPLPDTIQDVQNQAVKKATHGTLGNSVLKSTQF

`[2H]C([2H])([2H])C(C)(Sc1ccncc1-c1ccc(C#N)c2ccccc12)C(=O)O` (stereo not drawn) [Compound 41, 2-methyl-d3-2-((3-(4-cyanonaphthalen-1-yl)pyridin-4-yl)thio) propanoic acid] and `[2H]C([2H])([2H])C(Sc1ccncc1-c1ccc(C#N)c2ccccc12)(C(=O)O)C([2H])([2H])[2H]` [Compound 40, di(methyl-d3)-2-((3-(4-cyanonaphthalen-1-yl)pyridin-4-yl)thio)acetic acid] cannot be ordered by IC50: < 0.1 µM for the first, < 0.1 µM for the second.

First: N#Cc1ccc(-c2cnccc2SCCCC(=O)O)c2ccccc12 [Compound 3]
Second: N#Cc1ccc(-c2cnccc2SCCC(=O)O)c2ccccc12 [Compound 2]
The IC50 of the first is lower: < 0.1 µM for the first, 0.1 to 1 µM for the second. The first is the more potent here.

First: O=C(O)CC1(CSc2ccncc2-c2ccc(C3(O)COC3)cc2)CC1 [Compound 36, 2-(1-(((3-(4-(3-hydroxyoxetan-3-yl)phenyl)pyridin-4-yl)thio)methyl)cyclopropyl)acetic acid]
Second: O=C(O)CC1(CSc2ccncc2-c2ccc(C3(O)CC3)cc2)CC1 [Compound 34, 2-(1-(((3-(4-(1-hydroxycyclopropyl)phenyl)pyridin-4-yl)thio)methyl)cyclopropyl)acetic acid]
The IC50 of the first is higher: > 1 µM for the first, 0.1 to 1 µM for the second. The second is the more potent here.

`N#Cc1ccc(-c2cnccc2Sc2ccc(C(=O)O)cc2)c2ccccc12` [Compound 15] and `N#Cc1ccc(-c2cnccc2Sc2cccc(C(=O)O)c2)c2ccccc12` [Compound 14] fall in the same range of IC50: 0.1 to 1 µM for the first, 0.1 to 1 µM for the second.

`CC(C)(Nc1ccncc1-c1ccc(C#N)c2ccccc12)C(=O)O` [Compound 25] and `N#Cc1ccc(-c2cnccc2NCC(=O)O)c2ccccc12` [Compound 24, 2-(3-(1-cyanonaphthalen-4-yl)pyridin-4-ylamino)acetic acid] cannot be ordered by IC50: > 1 µM for the first, > 1 µM for the second.

First: N#Cc1ccc(-c2cnccc2OCC2(CC(=O)O)CC2)c2ccccc12 [Compound 30]
Second: N#Cc1ccc(-c2cnccc2SCC2(CC(=O)O)CC2)c2ccccc12 [Compound 4, 2-(1-(((3-(4-cyanonaphthalen-1-yl)pyridin-4-yl)thio)methyl)cyclopropyl)acetic acid]
The IC50 of the first is higher: > 1 µM for the first, < 0.1 µM for the second. The second is the more potent here.

`CC(C)(Sc1ccncc1-n1nc(C2CC2)c2ccccc21)C(=O)O` [Compound 9] and `CC(C)(Sc1ccncc1-n1cc(C#N)c2ccccc21)C(=O)O` [Compound 8, 2-((3-(3-cyano-1H-indol-1-yl)pyridin-4-yl)thio)-2-methylpropanoic acid] cannot be ordered by IC50: > 1 µM for the first, > 1 µM for the second.

`N#Cc1ccc(-c2cnccc2NCCCC(=O)O)c2ccccc12` [Compound 27] and `N#Cc1ccc(-c2cnccc2NCCC(=O)O)c2ccccc12` [Compound 26] cannot be ordered by IC50: > 1 µM for the first, > 1 µM for the second.

`Cc1cc(C#N)cnc1-c1cnccc1SC(C)(C)C(=O)O` [Compound 19] and `CC(C)(Sc1ccncc1-c1ccc(C#N)cn1)C(=O)O` [Compound 37, 2-((5-cyano-[2,3′-bipyridine]-4′-yl)thio)-2-methylpropanoic acid] cannot be ordered by IC50: > 1 µM for the first, > 1 µM for the second.

First: N#Cc1ccc(-c2cnccc2SC[C@H]2C[C@@H](C(=O)O)C2)c2ccccc12 [Compound 5]
Second: N#Cc1ccc(-c2cnccc2SC[C@H]2C[C@H](C(=O)O)C2)c2ccccc12 [Compound 6]
The IC50 of the first is lower: 0.1 to 1 µM for the first, > 1 µM for the second.

Compared with `N#Cc1ccc(-c2cnccc2CCC(=O)O)c2ccccc12` [Compound 32, 3-(3-(4-cyanonaphthalen-1-yl)pyridin-4-yl) propanoic acid], `CC(C)(CCC(=O)O)Sc1ccncc1-c1ccc(C#N)c2ccccc12` [Compound 18, 4-((3-(4-cyanonaphthalen-1-yl)pyridin-4-yl)thio)-4-methylpentanoic acid] is lower in IC50: > 1 µM for the first, < 0.1 µM for the second. The second is the more potent here.

`O=C(O)CC1(CSc2ccncc2-c2ccc(C(=O)O)cn2)CC1` [Compound 39, 4′-(((1-(carboxymethyl)cyclopropyl)methyl)thio)-[2,3′-bipyridine]-5-carboxylic acid] and `N#Cc1ccc(-c2cnccc2SCC2(CC(=O)O)CC2)nc1` [Compound 38, 2-(1-(((5-cyano-2,3′-bipyridin-4′-yl)thio)methyl)cyclopropyl)acetic acid] cannot be ordered by IC50: > 1 µM for the first, > 1 µM for the second.

Compared with `CC(C)(Sc1ccncc1-c1ncc(C#N)c2ccccc12)C(=O)O` [Compound 10, 2-((3-(4-cyanoisoquinolin-1-yl)pyridin-4-yl)thio)-2-methylpropanoic acid], `N#Cc1ccc(-c2cnccc2SCC2(C(=O)O)CC2)c2ccccc12` [Compound 1, 1-(((3-(4-cyanonaphthalen-1-yl)pyridin-4-yl)thio)methyl)cyclopropanecarboxylic acid] is lower in IC50: > 1 µM for the first, < 0.1 µM for the second. The second is the more potent here.

`CC(C)(Oc1ccncc1-c1ccc(C#N)cc1)C(=O)O` [Compound 31, 2-(3-(4-cyanophenyl)pyridin-4-yloxy)-2-methylpropanoic acid] and `N#Cc1ccc(-c2cnccc2NCC(=O)O)cc1` [Compound 28] cannot be ordered by IC50: > 1 µM for the first, > 1 µM for the second.

`CC(C)(Sc1ccncc1-c1ccc(C2(O)COC2)cc1)C(=O)O` [Compound 35, 2-((3-(4-(3-hydroxyoxetan-3-yl)phenyl)pyridin-4-yl)thio)-2-methylpropanoic acid] and `CC(C)(Sc1ccncc1-c1ccc(C2(O)CC2)cc1)C(=O)O` [Compound 33, 2-((3-(4-(1-hydroxycyclopropyl)phenyl)pyridin-4-yl)thio)-2-methylpropanoic acid] fall in the same range of IC50: 0.1 to 1 µM for the first, 0.1 to 1 µM for the second.

First: N#Cc1ccc(-c2cnccc2SCC2(CC(=O)O)CC2)cc1 [Compound 20, 2-(1-(((3-(4-cyanophenyl)pyridin-4-yl)thio)methyl)cyclopropyl)acetic acid]
Second: O=C(O)CC1(CSc2ccncc2-c2ccc(CO)cc2)CC1 [Compound 22, 2-(1-((3-(4-(hydroxymethyl)phenyl)pyridin-4-ylthio)methyl)cyclopropyl)acetic acid]
The IC50 of the first is lower: < 0.1 µM for the first, 0.1 to 1 µM for the second. The first is the more potent here.

`N#Cc1ccc(-c2cnccc2SCC2(C(=O)O)CCCC2)c2ccccc12` [Compound 16] and `N#Cc1ccc(-c2cnccc2SCC2(C(=O)O)CCC2)c2ccccc12` [Compound 17, 1-(((3-(4-cyanonaphthalen-1-yl)pyridin-4-yl)thio)methyl)cyclobutanecarboxylic acid] cannot be ordered by IC50: < 0.1 µM for the first, < 0.1 µM for the second.

`N#Cc1ccc(-c2cnccc2Sc2ccccc2C(=O)O)c2ccccc12` [Compound 13] and `N#Cc1ccc(-c2cnccc2S[C@H]2C[C@H](C(=O)O)C2)c2ccccc12` [Compound 7] fall in the same range of IC50: 0.1 to 1 µM for the first, 0.1 to 1 µM for the second.

First: N#Cc1ccc(-c2cnccc2SCCC(F)(F)C(=O)O)c2ccccc12 [Compound 12]
Second: N#Cc1ccc(-c2ccccc2SCC2(CC(=O)O)CC2)cc1 [Compound 11, 2-(1-((2-(4-cyanophenyl)phenylthio)methyl)cyclopropyl)acetic acid]
The IC50 of the first is higher: 0.1 to 1 µM for the first, < 0.1 µM for the second.

For `N#Cc1ccc(-c2cnccc2OCC2(CC(=O)O)CC2)cc1` [Compound 29, 2-(1-(((3-(4-cyanophenyl)pyridin-4-yl)oxy)methyl)cyclopropyl)acetic acid], the IC50 was > 1 µM.
